Reference: PMC4767141, “Discovery of Potent, Orally Bioavailable, Small-Molecule Inhibitors of WNT Signaling from a Cell-Based Pathway Screen” (Journal of Medicinal Chemistry, 2015)

How the values were obtained:
PKG1ALPHA = biological target: T1, PKG1ALPHA (Homo sapiens, UniProt Q13976); assay: Millipore kinase panel; type: biochemical; settings: read-out: % Control
T1 construct: purchased Millipore KinaseProfiler (kinases); Cerep (receptors and ion channels)

MSSK1 = biological target: T2, MSSK1 (Homo sapiens, UniProt Q9UPE1); assay: Millipore kinase panel; type: biochemical; settings: read-out: % Control
T2 construct: purchased Millipore KinaseProfiler (kinases); Cerep (receptors and ion channels)

PDGFRBETA = biological target: T3, PDGFRBETA (Homo sapiens, UniProt P09619); assay: Millipore kinase panel; type: biochemical; settings: read-out: % Control
T3 construct: purchased Millipore KinaseProfiler (kinases); Cerep (receptors and ion channels)

EPHB1 = biological target: T4, EPHB1 (Homo sapiens, UniProt P54762); assay: Millipore kinase panel; type: biochemical; settings: read-out: % Control
T4 construct: purchased Millipore KinaseProfiler (kinases); Cerep (receptors and ion channels)

PKCALPHA = biological target: T5, PKCALPHA (Homo sapiens, UniProt P17252); assay: Millipore kinase panel; type: biochemical; settings: read-out: % Control
T5 construct: purchased Millipore KinaseProfiler (kinases); Cerep (receptors and ion channels)

EPHA1 = biological target: T6, EPHA1 (Homo sapiens, UniProt P21709); assay: Millipore kinase panel; type: biochemical; settings: read-out: % Control
T6 construct: purchased Millipore KinaseProfiler (kinases); Cerep (receptors and ion channels)

NTS1 (NT1) (h) = biological target: T7, NTS1 (NT1) (h) (Homo sapiens, UniProt P30989); assay: CEREP binding panel; settings: agonist radioligand, read-out: % Inhibition of Control Specific Binding
T7 construct: purchased Millipore KinaseProfiler (kinases); Cerep (receptors and ion channels)

CRAF = biological target: T8, CRAF (Homo sapiens, UniProt P04049); assay: Millipore kinase panel; type: biochemical; settings: read-out: % Control
T8 construct: purchased Millipore KinaseProfiler (kinases); Cerep (receptors and ion channels)

TAO1 = biological target: T9, TAO1 (Homo sapiens, UniProt Q7L7X3); assay: Millipore kinase panel; type: biochemical; settings: read-out: % Control
T9 construct: purchased Millipore KinaseProfiler (kinases); Cerep (receptors and ion channels)

YES = biological target: T10, YES (Homo sapiens, UniProt P07947); assay: Millipore kinase panel; type: biochemical; settings: read-out: % Control
T10 construct: purchased Millipore KinaseProfiler (kinases); Cerep (receptors and ion channels)

GCK = biological target: T11, GCK (Homo sapiens, UniProt Q12851); assay: Millipore kinase panel; type: biochemical; settings: read-out: % Control
T11 construct: purchased Millipore KinaseProfiler (kinases); Cerep (receptors and ion channels)

NEK7 = biological target: T12, NEK7 (Homo sapiens, UniProt Q8TDX7); assay: Millipore kinase panel; type: biochemical; settings: read-out: % Control
T12 construct: purchased Millipore KinaseProfiler (kinases); Cerep (receptors and ion channels)
T12 sequence (Q8TDX7 whole entry): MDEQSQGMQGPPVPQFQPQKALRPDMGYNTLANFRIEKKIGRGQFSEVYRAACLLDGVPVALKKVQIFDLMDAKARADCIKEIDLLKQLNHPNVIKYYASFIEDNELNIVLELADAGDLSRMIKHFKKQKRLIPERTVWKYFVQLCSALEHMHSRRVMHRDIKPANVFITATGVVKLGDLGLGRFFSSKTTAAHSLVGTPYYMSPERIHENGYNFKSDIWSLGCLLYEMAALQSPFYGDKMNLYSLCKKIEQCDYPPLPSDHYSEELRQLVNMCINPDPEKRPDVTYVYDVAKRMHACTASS

BMX = biological target: T13, BMX (Homo sapiens, UniProt P51813); assay: Millipore kinase panel; type: biochemical; settings: read-out: % Control
T13 construct: purchased Millipore KinaseProfiler (kinases); Cerep (receptors and ion channels)

MAPK1 = biological target: T14, MAPK1 (Homo sapiens, UniProt P27361); assay: Millipore kinase panel; type: biochemical; settings: read-out: % Control
T14 construct: purchased Millipore KinaseProfiler (kinases); Cerep (receptors and ion channels)

Y2 (h) = biological target: T15, Y2 (h) (Homo sapiens, UniProt P49146); assay: CEREP binding panel; settings: agonist radioligand, read-out: % Inhibition of Control Specific Binding
T15 construct: purchased Millipore KinaseProfiler (kinases); Cerep (receptors and ion channels)

CB1 (h) = biological target: T16, CB1 (h) (Homo sapiens, UniProt P21554); assay: CEREP binding panel; settings: agonist radioligand, read-out: % Inhibition of Control Specific Binding
T16 construct: purchased Millipore KinaseProfiler (kinases); Cerep (receptors and ion channels)

IRR = biological target: T17, IRR (Homo sapiens, UniProt P14616); assay: Millipore kinase panel; type: biochemical; settings: read-out: % Control
T17 construct: purchased Millipore KinaseProfiler (kinases); Cerep (receptors and ion channels)

PI3 KINASE (P110A/P85A) = assay: Millipore kinase panel; type: biochemical; settings: 1 μM, ATP at Km
IRAK4 = biological target: T18, IRAK4 (Homo sapiens, UniProt Q9NWZ3); assay: Millipore kinase panel; type: biochemical; settings: read-out: % Control
T18 construct: purchased Millipore KinaseProfiler (kinases); Cerep (receptors and ion channels)

ITK = biological target: T19, ITK (Homo sapiens, UniProt Q08881); assay: Millipore kinase panel; type: biochemical; settings: read-out: % Control
T19 construct: purchased Millipore KinaseProfiler (kinases); Cerep (receptors and ion channels)

EPHA7 = biological target: T20, EPHA7 (Homo sapiens, UniProt Q15375); assay: Millipore kinase panel; type: biochemical; settings: read-out: % Control
T20 construct: purchased Millipore KinaseProfiler (kinases); Cerep (receptors and ion channels)
T20 sequence (Q15375 28-998): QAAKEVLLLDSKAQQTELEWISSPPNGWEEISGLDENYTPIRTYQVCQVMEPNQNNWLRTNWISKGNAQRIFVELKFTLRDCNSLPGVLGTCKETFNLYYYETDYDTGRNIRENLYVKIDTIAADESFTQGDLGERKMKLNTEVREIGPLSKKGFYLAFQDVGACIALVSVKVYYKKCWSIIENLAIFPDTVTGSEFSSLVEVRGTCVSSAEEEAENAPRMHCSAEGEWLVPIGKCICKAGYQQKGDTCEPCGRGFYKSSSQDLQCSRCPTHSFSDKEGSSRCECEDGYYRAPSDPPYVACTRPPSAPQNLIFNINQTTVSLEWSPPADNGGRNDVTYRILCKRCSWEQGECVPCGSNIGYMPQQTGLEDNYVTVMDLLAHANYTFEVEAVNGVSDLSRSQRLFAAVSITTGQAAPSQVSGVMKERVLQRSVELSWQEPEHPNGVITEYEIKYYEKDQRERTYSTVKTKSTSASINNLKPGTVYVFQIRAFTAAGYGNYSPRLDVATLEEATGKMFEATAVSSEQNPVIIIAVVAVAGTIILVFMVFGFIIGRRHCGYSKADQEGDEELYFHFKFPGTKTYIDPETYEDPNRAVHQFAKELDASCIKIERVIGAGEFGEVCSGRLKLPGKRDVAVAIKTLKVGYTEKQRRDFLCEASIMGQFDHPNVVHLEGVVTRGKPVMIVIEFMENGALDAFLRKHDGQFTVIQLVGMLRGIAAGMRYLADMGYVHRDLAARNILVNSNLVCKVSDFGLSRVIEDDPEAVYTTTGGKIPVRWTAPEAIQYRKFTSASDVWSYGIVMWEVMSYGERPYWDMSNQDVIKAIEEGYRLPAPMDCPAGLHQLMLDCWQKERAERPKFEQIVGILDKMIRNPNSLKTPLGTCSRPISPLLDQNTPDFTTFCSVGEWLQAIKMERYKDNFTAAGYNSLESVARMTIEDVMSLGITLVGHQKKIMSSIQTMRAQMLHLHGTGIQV

STK33 = biological target: T21, STK33 (Homo sapiens, UniProt Q9BYT3); assay: Millipore kinase panel; type: biochemical; settings: read-out: % Control
T21 construct: purchased Millipore KinaseProfiler (kinases); Cerep (receptors and ion channels)

NEK3 = biological target: T22, NEK3 (Homo sapiens, UniProt P51956); assay: Millipore kinase panel; type: biochemical; settings: read-out: % Control
T22 construct: purchased Millipore KinaseProfiler (kinases); Cerep (receptors and ion channels)

5-HT7 (h) = biological target: T23, 5-HT7 (h) (Homo sapiens, UniProt P34969); assay: CEREP binding panel; settings: agonist radioligand, read-out: % Inhibition of Control Specific Binding
T23 construct: purchased Millipore KinaseProfiler (kinases); Cerep (receptors and ion channels)

MTOR = biological target: T24, MTOR (Homo sapiens, UniProt P42345); assay: Millipore kinase panel; type: biochemical; settings: read-out: % Control
T24 construct: purchased Millipore KinaseProfiler (kinases); Cerep (receptors and ion channels)

PAK6 = biological target: T25, PAK6 (Homo sapiens, UniProt Q9NQU5); assay: Millipore kinase panel; type: biochemical; settings: read-out: % Control
T25 construct: purchased Millipore KinaseProfiler (kinases); Cerep (receptors and ion channels)

MARK1 = biological target: T26, MARK1 (Homo sapiens, UniProt Q9P0L2); assay: Millipore kinase panel; type: biochemical; settings: read-out: % Control
T26 construct: purchased Millipore KinaseProfiler (kinases); Cerep (receptors and ion channels)

EPHA3 = biological target: T27, EPHA3 (Homo sapiens, UniProt P29320); assay: Millipore kinase panel; type: biochemical; settings: read-out: % Control
T27 construct: purchased Millipore KinaseProfiler (kinases); Cerep (receptors and ion channels)

JNK1ALPHA1 = biological target: T28, JNK1ALPHA1 (Homo sapiens, UniProt P45983); assay: Millipore kinase panel; type: biochemical; settings: read-out: % Control
T28 construct: purchased Millipore KinaseProfiler (kinases); Cerep (receptors and ion channels)

MT1 (ML1A) (h) = biological target: T29, MT1 (ML1A) (h) (Homo sapiens, UniProt P48039); assay: CEREP binding panel; settings: agonist radioligand, read-out: % Inhibition of Control Specific Binding
T29 construct: purchased Millipore KinaseProfiler (kinases); Cerep (receptors and ion channels)

M1 (h) = biological target: T30, M1 (h) (Homo sapiens, UniProt P11229); assay: CEREP binding panel; settings: antagonist radioligand, read-out: % Inhibition of Control Specific Binding
T30 construct: purchased Millipore KinaseProfiler (kinases); Cerep (receptors and ion channels)

FGR = biological target: T31, FGR (Homo sapiens, UniProt P09769); assay: Millipore kinase panel; type: biochemical; settings: read-out: % Control
T31 construct: purchased Millipore KinaseProfiler (kinases); Cerep (receptors and ion channels)
T31 sequence (P09769 whole entry): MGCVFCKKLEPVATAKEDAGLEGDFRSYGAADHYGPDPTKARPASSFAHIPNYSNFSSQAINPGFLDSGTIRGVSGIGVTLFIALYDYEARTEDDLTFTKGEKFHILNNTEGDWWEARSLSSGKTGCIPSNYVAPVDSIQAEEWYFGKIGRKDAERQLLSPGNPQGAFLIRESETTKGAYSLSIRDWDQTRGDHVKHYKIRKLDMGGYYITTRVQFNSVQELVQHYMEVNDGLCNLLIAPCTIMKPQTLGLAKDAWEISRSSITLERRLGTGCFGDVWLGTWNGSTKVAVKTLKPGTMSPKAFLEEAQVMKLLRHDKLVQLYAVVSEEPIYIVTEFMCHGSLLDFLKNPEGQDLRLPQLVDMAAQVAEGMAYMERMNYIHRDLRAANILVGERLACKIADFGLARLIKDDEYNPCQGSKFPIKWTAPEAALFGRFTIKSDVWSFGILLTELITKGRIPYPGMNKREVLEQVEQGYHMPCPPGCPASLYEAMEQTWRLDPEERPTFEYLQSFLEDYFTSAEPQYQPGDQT

BRK = biological target: T32, BRK (Homo sapiens, UniProt Q13882); assay: Millipore kinase panel; type: biochemical; settings: read-out: % Control
T32 construct: purchased Millipore KinaseProfiler (kinases); Cerep (receptors and ion channels)

MNK2 = biological target: T33, MNK2 (Homo sapiens, UniProt Q9HBH9); assay: Millipore kinase panel; type: biochemical; settings: read-out: % Control
T33 construct: purchased Millipore KinaseProfiler (kinases); Cerep (receptors and ion channels)
T33 sequence (Q9HBH9 whole entry): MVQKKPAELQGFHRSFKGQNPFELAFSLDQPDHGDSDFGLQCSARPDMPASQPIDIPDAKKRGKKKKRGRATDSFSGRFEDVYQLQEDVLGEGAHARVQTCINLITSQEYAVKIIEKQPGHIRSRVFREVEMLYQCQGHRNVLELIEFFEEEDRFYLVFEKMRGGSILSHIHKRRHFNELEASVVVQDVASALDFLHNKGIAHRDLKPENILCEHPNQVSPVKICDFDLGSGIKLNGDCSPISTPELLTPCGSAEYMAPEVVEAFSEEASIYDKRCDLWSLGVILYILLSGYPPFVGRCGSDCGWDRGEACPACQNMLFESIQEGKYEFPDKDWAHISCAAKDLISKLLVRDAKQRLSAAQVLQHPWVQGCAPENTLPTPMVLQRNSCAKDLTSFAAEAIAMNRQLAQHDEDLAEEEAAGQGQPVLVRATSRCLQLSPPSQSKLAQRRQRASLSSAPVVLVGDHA

TIE2 = biological target: T34, TIE2 (Homo sapiens, UniProt Q02763); assay: Millipore kinase panel; type: biochemical; settings: read-out: % Control
T34 construct: purchased Millipore KinaseProfiler (kinases); Cerep (receptors and ion channels)

RSK2 = biological target: T35, RSK2 (Homo sapiens, UniProt P51812); assay: Millipore kinase panel; type: biochemical; settings: read-out: % Control
T35 construct: purchased Millipore KinaseProfiler (kinases); Cerep (receptors and ion channels)
T35 sequence (P51812 whole entry): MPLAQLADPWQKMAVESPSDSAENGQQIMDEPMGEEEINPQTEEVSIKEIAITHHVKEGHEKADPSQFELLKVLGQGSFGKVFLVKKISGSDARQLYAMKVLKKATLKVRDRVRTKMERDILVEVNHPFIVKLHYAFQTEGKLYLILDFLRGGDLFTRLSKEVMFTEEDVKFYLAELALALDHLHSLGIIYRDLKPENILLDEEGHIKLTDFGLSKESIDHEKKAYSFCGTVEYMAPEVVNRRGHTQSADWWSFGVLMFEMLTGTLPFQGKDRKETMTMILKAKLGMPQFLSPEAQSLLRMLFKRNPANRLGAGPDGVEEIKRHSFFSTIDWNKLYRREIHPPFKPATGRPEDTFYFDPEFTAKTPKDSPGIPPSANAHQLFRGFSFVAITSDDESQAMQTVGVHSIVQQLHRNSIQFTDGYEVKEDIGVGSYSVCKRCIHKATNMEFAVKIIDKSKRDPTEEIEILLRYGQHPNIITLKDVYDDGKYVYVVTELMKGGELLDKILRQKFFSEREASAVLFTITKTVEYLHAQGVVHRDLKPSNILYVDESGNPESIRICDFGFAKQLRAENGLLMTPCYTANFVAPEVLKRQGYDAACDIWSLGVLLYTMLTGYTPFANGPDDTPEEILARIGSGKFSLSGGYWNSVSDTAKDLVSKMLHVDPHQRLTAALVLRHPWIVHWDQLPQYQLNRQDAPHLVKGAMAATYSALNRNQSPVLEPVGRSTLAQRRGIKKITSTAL

HASPIN = biological target: T36, HASPIN (Homo sapiens, UniProt Q8TF76); assay: Millipore kinase panel; type: biochemical; settings: read-out: % Control
T36 construct: purchased Millipore KinaseProfiler (kinases); Cerep (receptors and ion channels)

JAK3 = biological target: T37, JAK3 (Homo sapiens, UniProt P52333); assay: Millipore kinase panel; type: biochemical; settings: read-out: % Control
T37 construct: purchased Millipore KinaseProfiler (kinases); Cerep (receptors and ion channels)

JNK3 = biological target: T38, JNK3 (Homo sapiens, UniProt P53779); assay: Millipore kinase panel; type: biochemical; settings: read-out: % Control
T38 construct: purchased Millipore KinaseProfiler (kinases); Cerep (receptors and ion channels)
T38 sequence (P53779 whole entry): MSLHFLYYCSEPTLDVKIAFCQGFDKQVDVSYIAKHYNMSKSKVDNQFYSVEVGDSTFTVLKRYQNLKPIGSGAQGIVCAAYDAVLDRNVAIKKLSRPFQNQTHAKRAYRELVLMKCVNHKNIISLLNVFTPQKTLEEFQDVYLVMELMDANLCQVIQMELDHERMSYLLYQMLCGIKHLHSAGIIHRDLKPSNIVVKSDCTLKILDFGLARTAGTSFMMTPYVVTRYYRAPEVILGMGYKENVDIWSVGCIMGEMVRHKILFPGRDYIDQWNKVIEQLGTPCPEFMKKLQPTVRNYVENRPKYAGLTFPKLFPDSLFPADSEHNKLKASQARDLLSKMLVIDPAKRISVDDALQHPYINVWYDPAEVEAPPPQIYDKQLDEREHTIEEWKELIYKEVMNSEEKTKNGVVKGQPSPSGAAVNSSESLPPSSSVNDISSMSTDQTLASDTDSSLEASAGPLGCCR

FLT3 = biological target: T39, FLT3 (Homo sapiens, UniProt P36888); assay: Millipore kinase panel; type: biochemical; settings: read-out: % Control
T39 construct: purchased Millipore KinaseProfiler (kinases); Cerep (receptors and ion channels)

FLT4 = biological target: T40, FLT4 (Homo sapiens, UniProt P35916); assay: Millipore kinase panel; type: biochemical; settings: read-out: % Control
T40 construct: purchased Millipore KinaseProfiler (kinases); Cerep (receptors and ion channels)

MAPKAP-K2 = biological target: T41, MAPKAP-K2 (Homo sapiens, UniProt P49137); assay: Millipore kinase panel; type: biochemical; settings: read-out: % Control
T41 construct: purchased Millipore KinaseProfiler (kinases); Cerep (receptors and ion channels)

ERBB4 = biological target: T42, ERBB4 (Homo sapiens, UniProt Q15303); assay: Millipore kinase panel; type: biochemical; settings: read-out: % Control
T42 construct: purchased Millipore KinaseProfiler (kinases); Cerep (receptors and ion channels)
T42 sequence (Q15303 26-1308): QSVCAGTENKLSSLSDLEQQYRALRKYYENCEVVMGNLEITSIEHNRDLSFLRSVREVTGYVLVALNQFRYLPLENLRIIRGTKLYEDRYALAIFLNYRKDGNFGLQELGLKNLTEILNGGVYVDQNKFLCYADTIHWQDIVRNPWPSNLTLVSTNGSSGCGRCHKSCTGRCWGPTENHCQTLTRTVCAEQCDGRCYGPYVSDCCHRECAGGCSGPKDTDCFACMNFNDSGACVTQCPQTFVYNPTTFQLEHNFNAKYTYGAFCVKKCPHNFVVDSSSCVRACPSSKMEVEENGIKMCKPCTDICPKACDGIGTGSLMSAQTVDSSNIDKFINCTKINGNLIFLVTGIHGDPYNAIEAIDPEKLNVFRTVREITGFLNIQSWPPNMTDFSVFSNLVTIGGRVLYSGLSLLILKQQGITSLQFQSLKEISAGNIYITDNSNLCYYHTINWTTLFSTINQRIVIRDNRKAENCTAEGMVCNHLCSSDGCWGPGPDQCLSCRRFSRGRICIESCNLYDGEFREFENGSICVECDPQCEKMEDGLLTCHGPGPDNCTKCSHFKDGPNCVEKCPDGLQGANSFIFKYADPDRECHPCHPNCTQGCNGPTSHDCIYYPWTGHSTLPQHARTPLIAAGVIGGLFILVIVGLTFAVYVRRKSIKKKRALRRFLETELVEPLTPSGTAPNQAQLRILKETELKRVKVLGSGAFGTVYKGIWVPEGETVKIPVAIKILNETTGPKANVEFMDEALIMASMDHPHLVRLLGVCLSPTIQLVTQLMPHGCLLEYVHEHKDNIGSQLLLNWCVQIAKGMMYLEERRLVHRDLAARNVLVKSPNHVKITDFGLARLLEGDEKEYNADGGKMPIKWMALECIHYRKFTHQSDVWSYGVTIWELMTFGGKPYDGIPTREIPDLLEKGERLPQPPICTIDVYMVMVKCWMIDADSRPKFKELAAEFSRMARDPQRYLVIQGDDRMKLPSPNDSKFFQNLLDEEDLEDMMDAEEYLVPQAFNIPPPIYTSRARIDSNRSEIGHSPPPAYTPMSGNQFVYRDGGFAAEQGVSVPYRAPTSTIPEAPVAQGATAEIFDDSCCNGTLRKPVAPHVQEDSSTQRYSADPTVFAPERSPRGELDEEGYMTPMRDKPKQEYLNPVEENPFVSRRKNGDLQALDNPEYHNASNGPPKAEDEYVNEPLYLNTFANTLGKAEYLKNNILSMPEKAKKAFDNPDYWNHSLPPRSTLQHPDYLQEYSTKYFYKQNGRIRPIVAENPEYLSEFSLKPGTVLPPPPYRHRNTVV

PAK4 = biological target: T43, PAK4 (Homo sapiens, UniProt O96013); assay: Millipore kinase panel; type: biochemical; settings: read-out: % Control
T43 construct: purchased Millipore KinaseProfiler (kinases); Cerep (receptors and ion channels)

## O=C1NCCC12CCN(c1c(Cl)cncc1-c1ccc(N3CCOCC3)cc1)CC2 [Compound 44, 8-(3-Chloro-5-(4-morpholin-4-ylphenyl)pyridin-4-yl)-2,8-diazaspiro[4.5]decan-1-one]
PKG1ALPHA
  remaining activity at 1 µM: 8%
MSSK1
  remaining activity at 1 µM: -10%
PDGFRBETA
  remaining activity at 1 µM: 13%
EPHB1
  remaining activity at 1 µM: -1%
PKCALPHA
  remaining activity at 1 µM: -5%
EPHA1
  remaining activity at 1 µM: -2%
NTS1 (NT1) (h)
  inhibition at 10 µM: -4%
CRAF
  remaining activity at 1 µM: -1%
TAO1
  remaining activity at 1 µM: -2%
YES
  remaining activity at 1 µM: -11%
GCK
  remaining activity at 1 µM: -9%
NEK7
  remaining activity at 1 µM: -7%
BMX
  remaining activity at 1 µM: -2%
MAPK1
  remaining activity at 1 µM: 10%
Y2 (h)
  inhibition at 10 µM: -8%
CB1 (h)
  inhibition at 10 µM: 1%
IRR
  remaining activity at 1 µM: 1%
PI3 KINASE (P110A/P85A)
  % Control: 1%
IRAK4
  remaining activity at 1 µM: 2%
ITK
  remaining activity at 1 µM: 16%
EPHA7
  remaining activity at 1 µM: -2%
STK33
  remaining activity at 1 µM: 4%
NEK3
  remaining activity at 1 µM: 18%
5-HT7 (h)
  inhibition at 10 µM: 9%
MTOR
  remaining activity at 1 µM: 18%
PAK6
  remaining activity at 1 µM: 13%
MARK1
  remaining activity at 1 µM: 4%
EPHA3
  remaining activity at 1 µM: 10%
JNK1ALPHA1
  remaining activity at 1 µM: 0%
MT1 (ML1A) (h)
  inhibition at 10 µM: 17%
M1 (h)
  inhibition at 10 µM: 12%
FGR
  remaining activity at 1 µM: 16%
BRK
  remaining activity at 1 µM: 2%
MNK2
  remaining activity at 1 µM: 2%
TIE2
  remaining activity at 1 µM: 19%
RSK2
  remaining activity at 1 µM: 3%
HASPIN
  remaining activity at 1 µM: 21%
JAK3
  remaining activity at 1 µM: -4%
JNK3
  remaining activity at 1 µM: 11%
FLT3
  remaining activity at 1 µM: -7%
FLT4
  remaining activity at 1 µM: -5%
MAPKAP-K2
  remaining activity at 1 µM: 0%
ERBB4
  remaining activity at 1 µM: -9%
PAK4
  remaining activity at 1 µM: -2%
